Usually IC50 stands for the midpoint of a concentration-inhibition curve. A lower IC50 goes with greater potency in that assay.

Assay [1] in a line: Binding inhibitory activity of compound was evaluated against bacteriophage anti-gp120 monoclonal antibody by competition ELISA assay. Background: An ELISA detects its analyte on a solid surface through an enzyme-linked reagent.
Assay [2] can be described thus: Loss of affinity of compound was determined for bacteriophage anti-gp120 monoclonal antibody by competition ELISA assay; 3 fold loss in affinity was observed.
A short description of assay [3]: Loss of affinity of compound was determined for bacteriophage anti-gp120 monoclonal antibody by competition ELISA assay; 10 fold loss in affinity was observed.
Assay [4] is described as follows: Loss of affinity of compound was determined for bacteriophage anti-gp120 monoclonal antibody by competition ELISA assay; 16 fold loss in affinity was observed.

In turn, H-ASTRPM-OH came in with an IC50 in assay [1] of 1.8 µM. The substance further had a Loss of affinity in assay [2] of 3.

Regarding H-EATRPM-OH, the Loss of affinity in assay [3] was 10. In assay [1], this substance showed an IC50 of 6.3 µM.

Turning to H-ESARPM-OH, the Loss of affinity in assay [3] was found to be 10. In assay [1], this substance came in with an IC50 of 6.3 µM.

H-ESTAPM-OH gave an IC50 in assay [1] of 10 µM. For the same substance, the Loss of affinity in assay [4] came out at 16.

In assay [1], H-ESTRAM-OH yielded an IC50 of 0.63 µM.

Take H-ESTRPA-OH: in assay [1], the IC50 came out at 10 µM. In assay [4], this substance had a Loss of affinity of 16.

As to H-ESTRPM-OH, in assay [1], the IC50 was 0.63 µM.

For the origin of these results see ChEMBL document CHEMBL1127198, “Identification of antibody mimotopes containing non-natural amino acids by recombinant and synthetic peptide library affinity selection methods” (Bioorg Med Chem Lett, 1993).
